Results taken from patent publication US20260297098A1, “HETEROCYCLIC COMPOUNDS AS PARP1 INHIBITORS” (Synnovation Therapeutics, Inc., priority 2023, published 2026).

Biological target: T1, hydrogen peroxide-induced PARylation in HeLa cells (wide-type with PARP1 gene) (Homo sapiens, UniProt P09874)
T1 construct: H2O2-induced PARylation, In-Cell Western with anti-PAR antibody
Assay: In-Cell Western measurement of PARylation in PARP1 WT (HeLa) cells
Assay type: cell-based
Settings: 60 min compound pre-treatment, 10 mM hydrogen peroxide for 15 min, read-out: HeLa_WT_IC50
Excerpt: Example A. In-Cell Western Measurement of PARylation in PARP1 WT and Knockout Cells
The purpose of this cell-based assay is to measure the potency and selectivity of synthesized PARP inhibitors in suppressing hydrogen peroxide-induced PARylation in cells with and without PARP1 expression. Several cell lines were used in this assay. HeLa cells (wide-type with PARP1 gene) were purchased from ATCC. The HAP1 cell line without the PARP1 gene (#HZGHC003943c006) was purchased from Horizon Discovery. Cells were cultured using complete medium containing 10% fetal bovine serum. One day before the assay, cells were seeded in 96-well plates at the density of 20,000 cells per well in 80 uL complete medium. Compounds were dissolved using DMSO and diluted to the working concentrations using complete medium. Cells were pre-treated with compounds for 60 min and then stimulated with 10 mM hydrogen peroxide for 15 min. After stimulation, cells were immediately fixed using ice-cold methanol for 20 min. After fixation, cells were washed using 1×PBST buffer for 3 times, 5 min each time, to eliminate residual methanol. Cells were blocked for 1 h at room temperature in blocking buffer (10% goat serum, 1% BSA, 0.1% Triton X-100 in PBST). Primary antibody was diluted in blocking buffer at 50 uL per well. Cells were incubated with the primary antibody (Adipogen, AG-20T-0001-M001, 1:300) at 4° C. for 18 h. The wells were then washed using 1×PBST for 3 times, 5 min each time. IRDye® 680RD Goat anti-Mouse IgG (H+L) secondary antibody was diluted at 1/1000 using the diluent buffer and added at 50 uL per well. Secondary antibody incubation was for 1 h at room temperature. Cells were then washed using 1×PBST for 3 times, 5 min each time. The signal was detected and analyzed using LI-COR Odyssey DLx Imaging system. Data were collected and further processed using GraphPad Prism for IC50 estimation.

T1 sequence (P09874 whole entry): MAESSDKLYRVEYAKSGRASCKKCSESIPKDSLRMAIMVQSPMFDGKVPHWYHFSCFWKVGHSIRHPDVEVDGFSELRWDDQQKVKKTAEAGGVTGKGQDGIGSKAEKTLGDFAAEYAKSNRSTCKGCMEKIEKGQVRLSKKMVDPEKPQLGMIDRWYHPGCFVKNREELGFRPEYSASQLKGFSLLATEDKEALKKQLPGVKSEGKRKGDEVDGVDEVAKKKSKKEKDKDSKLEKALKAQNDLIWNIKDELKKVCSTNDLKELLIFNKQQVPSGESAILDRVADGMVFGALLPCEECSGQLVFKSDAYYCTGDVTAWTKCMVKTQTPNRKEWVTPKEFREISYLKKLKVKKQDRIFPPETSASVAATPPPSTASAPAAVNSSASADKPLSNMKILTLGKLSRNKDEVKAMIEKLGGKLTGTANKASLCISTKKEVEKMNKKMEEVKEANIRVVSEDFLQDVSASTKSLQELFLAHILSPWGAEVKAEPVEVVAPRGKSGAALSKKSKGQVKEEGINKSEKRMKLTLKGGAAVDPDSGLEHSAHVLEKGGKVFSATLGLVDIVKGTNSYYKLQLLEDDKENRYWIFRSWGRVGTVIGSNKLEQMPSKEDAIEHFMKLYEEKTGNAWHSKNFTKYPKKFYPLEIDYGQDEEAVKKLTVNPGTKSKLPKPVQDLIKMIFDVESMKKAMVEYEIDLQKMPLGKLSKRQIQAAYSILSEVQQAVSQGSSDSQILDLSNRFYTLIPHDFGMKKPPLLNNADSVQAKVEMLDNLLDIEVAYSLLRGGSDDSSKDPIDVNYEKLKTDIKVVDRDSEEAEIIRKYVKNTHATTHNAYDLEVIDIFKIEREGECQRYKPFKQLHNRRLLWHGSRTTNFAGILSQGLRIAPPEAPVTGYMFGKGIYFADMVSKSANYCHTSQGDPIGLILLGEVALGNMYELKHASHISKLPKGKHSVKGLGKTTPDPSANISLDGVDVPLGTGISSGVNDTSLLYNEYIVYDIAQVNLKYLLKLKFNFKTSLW

CCN1C(=O)Nc2c(F)c(CN3CC(Oc4ccc(C(=O)NC)nc4)C3)cc3ncnc1c23 [Example 1, 5-((1-((3-Ethyl-9-fluoro-2-oxo-2,3-dihydro-1H-pyrimido[4,5,6-de]quinazolin-8-yl)methyl)azetidin-3-yl)oxy)-N-methylpicolinamide]
IC50: ≤ 10 nM

CCN1C(=O)Nc2c(F)c(CN3C[C@H](Oc4ccc(C(=O)NC)nc4)[C@H]3C)cc3ncnc1c23 [Example 2, 5-(((2R,3S)-1-((3-ethyl-9-fluoro-2-oxo-2,3-dihydro-1H-pyrimido[4,5,6-de]quinazolin-8-yl)methyl)-2-methylazetidin-3-yl)oxy)-N-methylpicolinamide]
IC50: ≤ 10 nM

CCN1C(=O)Nc2cc(CN3CC(Oc4ccc(C(=O)NC)nc4)C3)cc3ncnc1c23 [Example 3, 5-((1-((3-Ethyl-2-oxo-2,3-dihydro-1H-pyrimido[4,5,6-de]quinazolin-8-yl)methyl)azetidin-3-yl)oxy)-N-methylpicolinamide]
IC50: ≤ 10 nM

CCN1C(=O)Nc2cc(CN3C[C@H](Oc4ccc(C(=O)NC)nc4)[C@H]3C)cc3ncnc1c23 [Example 4, 5-(((2R,3S)-1-((3-ethyl-2-oxo-2,3-dihydro-1H-pyrimido[4,5,6-de]quinazolin-8-yl)methyl)-2-methylazetidin-3-yl)oxy)-N-methylpicolinamide]
IC50: ≤ 10 nM

CCN1C(=O)Nc2cc(CN3CC(Oc4ccc(C(=O)NC5CC5)nc4)C3)cc3ncnc1c23 [Example 5, N-cyclopropyl-5-((1-((3-ethyl-2-oxo-2,3-dihydro-1H-pyrimido[4,5,6-de]quinazolin-8-yl)methyl)azetidin-3-yl)oxy)picolinamide]
IC50: ≤ 10 nM

CCN1C(=O)Nc2cc(CN3C[C@H](Oc4ccc(C(=O)NC5CC5)nc4)[C@H]3C)cc3ncnc1c23 [Example 6, N-cyclopropyl-5-(((2R,3S)-1-((3-ethyl-2-oxo-2,3-dihydro-1H-pyrimido[4,5,6-de]quinazolin-8-yl)methyl)-2-methylazetidin-3-yl)oxy)picolinamide]
IC50: ≤ 10 nM

CCN1C(=O)Nc2c(F)c(CN3CC(Oc4ccc(C(=O)NC5CC5)nc4)C3)cc3ncnc1c23 [Example 7, N-cyclopropyl-5-((1-((3-ethyl-9-fluoro-2-oxo-2,3-dihydro-1H-pyrimido[4,5,6-de]quinazolin-8-yl)methyl)azetidin-3-yl)oxy)picolinamide]
IC50: ≤ 10 nM

CCN1C(=O)Nc2c(F)c(CN3C[C@H](Oc4ccc(C(=O)NC5CC5)nc4)[C@H]3C)cc3ncnc1c23 [Example 8, N-cyclopropyl-5-(((2R,3S)-1-((3-ethyl-9-fluoro-2-oxo-2,3-dihydro-1H-pyrimido[4,5,6-de]quinazolin-8-yl)methyl)-2-methylazetidin-3-yl)oxy)picolinamide]
IC50: ≤ 10 nM

CCN1C(=O)Nc2cc(CN3CC(Oc4ccc(C(=O)NC)nc4C)C3)cc3ncnc1c23 [Example 9, 5-((1-((3-Ethyl-2-oxo-2,3-dihydro-1H-pyrimido[4,5,6-de]quinazolin-8-yl)methyl)azetidin-3-yl)oxy)-N,6-dimethylpicolinamide]
IC50: ≤ 10 nM

CCN1C(=O)Nc2cc(CN3C[C@H](Oc4ccc(C(=O)NC)nc4C)[C@H]3C)cc3ncnc1c23 [Example 10, 5-(((2R,3S)-1-((3-ethyl-2-oxo-2,3-dihydro-1H-pyrimido[4,5,6-de]quinazolin-8-yl)methyl)-2-methylazetidin-3-yl)oxy)-N,6-dimethylpicolinamide]
IC50: ≤ 10 nM
